Some test systems named below: MDA-MB-435; SNB-75 CNS; MALME-3M melanoma; SK-OV-3 ovarian; HL-60(TB) leukemia; SR leukemia; TK-10 renal; UACC-62 melanoma; HOP-92 NSCLC; OVCAR-4 ovarian; MDA-N; UACC-257 melanoma; OVCAR-8 ovarian; HT29 colon; ACHN renal; IGROV1 ovarian; SK-MEL-28 melanoma; NCI-H522 lung; A498 renal.
Test in all cases: growth of human tumour cells (NCI), 48 h

The structures appear in SMILES notation.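 Following 48 hours of exposure in 96-well plates, responses at five concentrations were used to interpolate endpoints linearly. Definition used: TGI = concentration required for complete inhibition of growth.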 Some results are limits rather than exact numbers.

With `Cc1noc(C)c1N=Nc1ccc2nonc2c1N`, the TGI in the assay with MDA-MB-435 was above 100 µM; with SNB-75 CNS, 42.2 µM; with MALME-3M melanoma it was above 100 µM; in the assay with SK-OV-3 ovarian it was above 100 µM; in the assay on HL-60(TB) leukemia it was above 100 µM; in the assay with SR leukemia, above 100 µM. The TGI in the assay with TK-10 renal, in the assay on UACC-62 melanoma, in the assay on HOP-92 NSCLC, in the assay with OVCAR-4 ovarian, with MDA-N and with UACC-257 melanoma was above 100 µM each time. Also, the TGI in the assay on OVCAR-8 ovarian, in the assay with HT29 colon, in the assay with ACHN renal, with IGROV1 ovarian and in the assay on SK-MEL-28 melanoma was above 100 µM each time.

`CC(=O)O[C@@H]1CC2[C@@H](CCC3Cc4nc5c(nc4C[C@@]32C)CC2CC[C@@H]3C(CC[C@@]4(C)C3CC[C@@H]4C(C)CCCC(C)C)[C@@]2(C)C5)C2C[C@@H]3OC4(CCC(C)CO4)C(C)[C@@H]3[C@]21C` (stereo partly specified): the TGI was above 100 µM with MDA-MB-435; 37.2 µM with SNB-75 CNS; above 100 µM in the assay on MALME-3M melanoma; above 100 µM in the assay on SK-OV-3 ovarian; above 100 µM in the assay on HL-60(TB) leukemia; above 100 µM in the assay with SR leukemia. Further, the TGI in the assay with TK-10 renal was above 100 µM; in the assay with UACC-62 melanoma, 50.1 µM; in the assay with HOP-92 NSCLC it was 70 µM; in the assay with OVCAR-4 ovarian it was above 100 µM; in the assay on NCI-H522 lung, above 100 µM; with MDA-N it was above 100 µM. Further, the TGI with UACC-257 melanoma, in the assay on OVCAR-8 ovarian, in the assay on HT29 colon, in the assay on ACHN renal, with IGROV1 ovarian and with SK-MEL-28 melanoma was above 100 µM each time.

For the compound `COc1ccc2c(c1)-c1c(c3ccccc3n1CCN1CCOCC1)CC2`, the TGI is above 100 µM with MDA-MB-435; 49 µM in the assay on SNB-75 CNS; 46.2 µM with MALME-3M melanoma; above 100 µM in the assay with SK-OV-3 ovarian; 53.3 µM in the assay on SR leukemia; 1.78 µM in the assay with TK-10 renal. The TGI is 49.4 µM in the assay on UACC-62 melanoma; above 100 µM in the assay on HOP-92 NSCLC; above 100 µM in the assay with OVCAR-4 ovarian; 37.3 µM in the assay on NCI-H522 lung; above 100 µM in the assay with MDA-N; above 100 µM in the assay with UACC-257 melanoma. The TGI in the assay with OVCAR-8 ovarian is 53.2 µM; in the assay on HT29 colon, 25.9 µM; in the assay on ACHN renal, above 100 µM; in the assay with IGROV1 ovarian it was 38.5 µM; in the assay on SK-MEL-28 melanoma it was above 100 µM.

For the compound `C[n+]1c(-c2ccc(/C=N/Nc3n[nH]c(=S)n3N/N=C/c3ccc(-c4cn5ccccc5[n+]4C)cc3)cc2)cn2ccccc21`, the TGI in the assay on MDA-MB-435, with SNB-75 CNS, in the assay on SK-OV-3 ovarian, with HL-60(TB) leukemia, in the assay on SR leukemia and in the assay with TK-10 renal was above 100 µM in each case. Moreover, the TGI with OVCAR-4 ovarian, with NCI-H522 lung, with MDA-N, in the assay with UACC-257 melanoma, with OVCAR-8 ovarian and with HT29 colon was above 100 µM throughout. Besides, the TGI in the assay with ACHN renal, with IGROV1 ovarian and in the assay with SK-MEL-28 melanoma was above 100 µM in each case.

Consider `CC1(C)N=C(/C(C#N)=[N+](/[O-])C(=O)c2ccccc2)C(C)(C)N1O`, for which the TGI in the assay with MDA-MB-435, in the assay on SNB-75 CNS, with MALME-3M melanoma, in the assay on SK-OV-3 ovarian, with HL-60(TB) leukemia and with SR leukemia was above 100 µM throughout. In addition, the TGI with TK-10 renal, in the assay on UACC-62 melanoma, with HOP-92 NSCLC, in the assay with OVCAR-4 ovarian, in the assay on MDA-N and with UACC-257 melanoma was above 100 µM in each case. Besides, the TGI with OVCAR-8 ovarian, in the assay on HT29 colon, in the assay on ACHN renal, in the assay on IGROV1 ovarian and in the assay with SK-MEL-28 melanoma was above 100 µM throughout.

As for `O=S(=O)(Nc1nc(-c2cc(O)c(O)c(O)c2)cs1)c1ccc(Cl)cc1Cl`, the TGI in the assay with MDA-MB-435 was 56.9 µM; in the assay on SNB-75 CNS it was 77.6 µM; in the assay with MALME-3M melanoma it was above 100 µM; in the assay with SK-OV-3 ovarian it was above 100 µM; with HL-60(TB) leukemia, above 100 µM; in the assay on TK-10 renal, 36.2 µM. The TGI was above 100 µM in the assay on UACC-62 melanoma; above 100 µM in the assay on HOP-92 NSCLC; 47.9 µM with OVCAR-4 ovarian; 34.5 µM in the assay with NCI-H522 lung; 73.9 µM in the assay with MDA-N; 67.7 µM in the assay with UACC-257 melanoma. For the same compound, the TGI was 14.9 µM with OVCAR-8 ovarian; 51.2 µM in the assay with HT29 colon; above 100 µM with A498 renal; 28.1 µM in the assay with ACHN renal; 45.9 µM in the assay on IGROV1 ovarian; above 100 µM with SK-MEL-28 melanoma.

For `Cc1cc(NS(=O)(=O)c2ccc(NC(=O)c3cccc4c(NNc5ccc(S(N)(=O)=O)cc5)c5ccccc5nc34)cc2)no1`, the TGI in the assay with MDA-MB-435 was above 100 µM; with SNB-75 CNS it was 96.6 µM; in the assay on MALME-3M melanoma, above 100 µM; in the assay with SK-OV-3 ovarian, above 100 µM; in the assay with HL-60(TB) leukemia it was 76.5 µM; in the assay with SR leukemia it was 93.2 µM. Also, the TGI with TK-10 renal was above 100 µM; with UACC-62 melanoma, above 100 µM; in the assay on HOP-92 NSCLC it was 82 µM; in the assay on OVCAR-4 ovarian it was above 100 µM; in the assay on NCI-H522 lung, 72.8 µM; in the assay on MDA-N, above 100 µM. The TGI in the assay with UACC-257 melanoma was above 100 µM; with OVCAR-8 ovarian it was above 100 µM; in the assay on HT29 colon, 73.2 µM; in the assay on ACHN renal, above 100 µM; in the assay with IGROV1 ovarian it was above 100 µM; with SK-MEL-28 melanoma, 89 µM.

For `O=C(O)c1ccc(/C=N\N(CCO)C2=NCCN2)cc1`, the TGI in the assay with MDA-MB-435, in the assay with SNB-75 CNS, with MALME-3M melanoma, in the assay with SK-OV-3 ovarian, with HL-60(TB) leukemia and in the assay with SR leukemia was above 100 µM in each case. Further, the TGI in the assay on TK-10 renal, in the assay with UACC-62 melanoma, with HOP-92 NSCLC, in the assay with OVCAR-4 ovarian, in the assay on MDA-N and in the assay on OVCAR-8 ovarian was above 100 µM throughout. The TGI in the assay with HT29 colon, in the assay on ACHN renal, in the assay with IGROV1 ovarian and in the assay with SK-MEL-28 melanoma was above 100 µM throughout.
